For series [1], the system named is retinal bipolar cells. The experiment in a line: AAV-mediated transduction efficiency (mCherry expression) in retinal bipolar cells after intravitreal co-injection of rAAV2 vector with proteasome inhibitor. Conditions: for transduction efficiency in retinal bipolar cells: about one month after virus injection; for expression (fluorescence intensity) of mCherry in bipolar cells: intravitreal. The series is classed as in vivo, C57BL/6J mice. From the text:
FIG. 1A-B is a series of photographs and a graph depicting the effects of proteasomes on the AAV-mediated expression of transgene (mCherry) in retinal bipolar cells one month after virus injection. FIG. 1A: Representative images of virus transduced retinal bipolar cells. […] DOX: doxorubicin; Acla: Aclarubicin; MG: MG132. FIG. 1B. Statistical data for evaluating the fluorescence intensity of mCherry in bipolar cells one month after virus injection.
FIG. 2A-B is a series of photographs and a graph depicting the effects of DOX on the AAV-mediated expression of transgene (mCherry) in retinal bipolar cells three months after virus injection. FIG. 2A. Representative images of virus transduced retinal bipolar cells three months after virus injection. Virus vectors were co-injected with DOX at different concentrations. FIG. 2B. Statistical data for evaluating the fluorescence intensity of mCherry in bipolar cells three months after virus injection.

Series [2] concerns retinal ganglion cells. Briefly: Density of retinal ganglion cells (DAPI staining) after virus injection with and without DOX. In kind it is in vivo, C57BL/6J mice. Conditions: three months after virus injection; 300 μM and 500 μM DOX. From the text:
FIG. 4A-B is a series of photographs and a graph, depicting the effects of DOX on retinal ganglion cells. FIG. 4A. Representative images for evaluating the density of retinal ganglion cells with DAPI staining after virus transduction in bipolar cells with and without DOX at different concentrations. Animals were euthanized one and three months after virus injection. FIG. 4B. Statistical data for evaluating the density of retinal ganglion cells one and three months after virus injection with and without doxorubicin (DOX).

Experimental findings from patent US20170319669A1, “METHOD OF ENHANCING VIRAL-MEDIATED GENE DELIVERY” (Wayne State University, priority 2016, published 2017) are described below.

Peptide text beside a SMILES is read from it. * marks the point of attachment. Cbz = O=C(OCc1ccccc1)*

For `CC(C)C[C@@H](C=O)NC(=O)[C@H](CC(C)C)NC(=O)[C@H](CC(C)C)NC(=O)OCc1ccccc1` [MG132] (Cbz-Leu-Leu-Leu-aldehyde), in series [1] (MG132 100 μM, 200 μM, 500 μM), the “transduction efficiency in retinal bipolar cells” value is recorded as “not found to enhance the transduction efficiency”.
Turning to `CC[C@@]1(O)C[C@H](O[C@H]2C[C@H](N(C)C)[C@H](O[C@H]3C[C@H](O)[C@H](O[C@H]4CCC(=O)[C@H](C)O4)[C@H](C)O3)[C@H](C)O2)c2c(cc3c(c2O)C(=O)c2c(O)cccc2C3=O)[C@H]1C(=O)OC` [aclarubicin], the “transduction efficiency in retinal bipolar cells” value in series [1] (aclarubicin 50 μM, 100 μM) was “not found to enhance the transduction efficiency”.
Take `COc1cccc2c1C(=O)c1c(O)c3c(c(O)c1C2=O)C[C@@](O)(C(=O)CO)C[C@@H]3O[C@H]1C[C@H](N)[C@H](O)[C@H](C)O1` [doxorubicin]: in series [1] (doxorubicin from 200 μM to 800 μM), the “transduction efficiency in retinal bipolar cells” value was “concentration-dependent increase”. In addition, the “optimal concentration to enhance the AAV transduction efficiency” value in series [1] (intravitreal co-injection with rAAV2 vector, mice) turned out to be 500 µM. Besides, the “expression (fluorescence intensity) of mCherry in bipolar cells” value is “significantly increased” in series [1] (one month after virus injection, co-injection of DOX at concentrations ≧300 μM, mice) and “significantly increased” in series [1] (three months after virus injection, co-injection of DOX at concentrations ≧200 μM, mice). The “retinal ganglion cell density vs control” value in series [2] was “statistically lower than that of control”.
